# Measured values taken from patent US20170349532A1, “CATIONIC LIPID” (Kyowa Hakko Kirin Co., Ltd., priority 2011, published 2017).
# Test: Average particle diameter of preparation (Zetasizer Nano ZS)
# Type: physicochemical
# Details: average particle diameter of cationic lipid/nucleic acid complex; Example 118 preparation: compound/PEG-DMPE Na/DSPC/cholesterol with apo-b siRNA
# Source text: Preparations were produced using the compounds obtained in Examples 1 to 117, as follows.
# APO-B siRNA was used as the nucleic acid. APO-B siRNA suppresses expression of an apolipoprotein-B (hereinafter, “apo-b”) gene and has a sense strand with the base sequence 5′-GmUCAmUCACACmUGAAmUACCAAmU-3′ (the sugars attached to the bases appended with m are 2′-O-methyl-substituted riboses), and an antisense strand with the base sequence 5′-[…]-3′ (the 5′-end is phosphorylated). The sense strand and the antisense strand were obtained from Nippon EGT, GeneDesign, Inc., Invitrogen or Hokkaido System Science Co., Ltd., and annealed to prepare the nucleic acid (hereinafter, “apo-b siRNA”).
# A solution comprising the constituent components was prepared by dissolving each of the weighed samples in 90 vol % ethanol in 8.947/1.059/5.708/13.697 mmol/L [compounds 1 to 117 obtained in Examples 1 to 117/sodium 1,2-dimyristoyl-sn-glycero-3-phosphoethanolamine-N-(methoxy(polyethylene glycol)-2000) (PEG-DMPE Na,N-(carbonylmethoxypolyethylene glycol 2000)-1,2-dimyristoyl-sn-glycero-3-phosphoethanolamine sodium salt, NOF Corporation)/distearoylphosphatidyl choline (DSPC, 1,2-distearoyl-sn-glycero-3-phosphocholine, NOF Corporation)/cholesterol (Avanti Polar Lipids)]. Separately, apo-b siRNA/distilled water (24 mg/mL) was diluted with a Tris-EDTA buffer (200 mM Tris-HCl, 20 mM EDTA, Invitrogen) and a 20 mM citric acid buffer (pH 5.0) to prepare a 1.5 mg/mL apo-b siRNA aqueous solution (2 mM Tris-EDTA/20 mM citric acid buffer, pH 5.0).
# The resulting lipid solution was heated to 37° C., and a 100-μL portion was transferred to a preparation container. The apo-b siRNA aqueous solution (100 μL) was then added thereto while being stirred. Then, a 20 mM citric acid buffer (containing 300 mM NaCl, pH 6.0; 200 μL) was added to the lipid nucleic acid mixed suspension (200 μL) while being stirred. The siRNA concentration was brought to 10 μM by dropping a Dulbecco phosphate buffer (DPBS, Invitrogen; 662 μL), and preparations (compositions comprising compounds 1 to 117 and the nucleic acid) were obtained.
# The average particle diameter of the complex between the cationic lipis and the nucleic acid in each preparation was measured with a particle diameter measurement device (Malvern; Zetasizer Nano ZS).
row,Structure (SMILES),Particle diameter of Preparetion [nm]
1,"CCCCC/C=C\C/C=C\CCCCCCCC(=O)OCCN(CCOC(=O)CCCCCCC/C=C\C/C=C\CCCCC)C(=O)OCCCN(C)C [Compound 117, 3-(Dimethylamino)propyl bis(2-((9Z,12Z)-1-oxooctadec-9,12-dienyloxy)ethyl)carbamate]",155.9
2,"CCCCCCCC/C=C\CCCCCCCC(=O)OCCN(CCOC(=O)CCCCCCC/C=C\CCCCCCCC)C(=O)CN(C)C [Compound 98, 2-(Dimethylamino)-N,N-bis(2-((Z)-octadec-9-enoyloxy)ethyl)acetamide]",124.1
3,"CCCCC/C=C\C/C=C\CCCCCCCCO[C@H]1CN(C)C[C@H]1OCCCCCCCC/C=C\C/C=C\CCCCC [Compound 11, (3R,4S)-1-Methyl-3,4-bis((9Z,12Z)-octadec-9,12-dienyloxy)pyrrolidine]",135.8
4,"CCCCCCCC/C=C\CCCCCCCC(=O)OCCNCCOC(=O)CCCCCCC/C=C\CCCCCCCC [Compound 73, N,N-bis(2-((Z)-Octadec-9-enoyloxy)ethyl)amine]",146.8
5,"CCCCC/C=C\C/C=C\CCCCCCCCO[C@H]1CNC[C@H]1OCCCCCCCC/C=C\C/C=C\CCCCC [Compound 3, (3R,4S)-3,4-bis((9Z,12Z)-Octadec-9,12-dienyloxy)pyrrolidine]",152.8
6,"CCCCCC/C=C\CCCCCCCCOC[C@@H]1CN(C)C[C@H]1COCCCCCCCC/C=C\CCCCCC (relative stereo) [Compound 51, trans-3,4-bis(((Z)-Hexadec-9-enyloxy)methyl)-1-methylpyrrolidine]",123.9
7,"CCCCC/C=C\C/C=C\CCCCCCCCO[C@H]1CNC[C@@H]1OCCCCCCCC/C=C\C/C=C\CCCCC (stereo in doubt) [Compound 43, (3S,4S)-3,4-bis((9Z,12Z)-Octadec-9,12-dienyloxy)pyrrolidine]",150.0
8,"CCCCC/C=C\C/C=C\CCCCCCCC(=O)O[C@@H]1CN(C(=O)CN)C[C@H]1OC(=O)CCCCCCC/C=C\C/C=C\CCCCC [Compound 65, (3R,4R)-1-(2-aminoacetyl)pyrrolidine-3,4-diyl di((9Z,12Z)-octadec-9,12-enoate)]",128.9
9,"CCCCC/C=C\C/C=C\CCCCCCCCCCOC[C@@H]1CN(C(=O)[C@@H](N)CCCCN)C[C@H]1COCCCCCCCCCC/C=C\C/C=C\CCCCC [Compound 115, trans-1-((S)-2,6-Diaminohexanoyl)-3,4-bis(((11Z,14Z)-icos-11,14-dienyloxy)methyl)pyrrolidine]",152.8
10,"CCCCC/C=C\C/C=C\CCCCCCCC(=O)O[C@@H]1CN(C(=O)CCN(C)C)C[C@H]1OC(=O)CCCCCCC/C=C\C/C=C\CCCCC [Compound 29, (3R,4R)-1-(3-(dimethylamino)propanoyl)pyrrolidine-3,4-diyl di((9Z,12Z)-octadec-9,12-dienoate)]",122.5
11,"CCCCC/C=C\C/C=C\CCCCCCCCO[C@H]1CN(C)C[C@@H]1OCCCCCCCC/C=C\C/C=C\CCCCC (stereo in doubt) [Compound 50, (3S,4S)-1-Methyl-3,4-bis((9Z,12Z)-octadec-9,12-dienyloxy)pyrrolidine]",129.2
12,"CCCCCCCC/C=C\CCCCCCCC(=O)OC[C@@H]1CN(C)C[C@H]1COC(=O)CCCCCCC/C=C\CCCCCCCC (relative stereo) [Compound 109, trans-1-Methyl-3,4-bis(((Z)-octadec-9-enoyloxy)methyl)pyrrolidine]",129.6
13,"CCCCCC/C=C\CCCCCCCCOC[C@@H]1CNC[C@H]1COCCCCCCCC/C=C\CCCCCC (relative stereo) [Compound 44, trans-3,4-bis(((Z)-Hexadec-9-enyloxy)methyl)pyrrolidine]",143.5
14,"CCCCC/C=C\C/C=C\CCCCCCCCO[C@@H]1CN(C)C[C@H]1OCCCCCCCC/C=C\C/C=C\CCCCC [Compound 10, (3R,4R)-1-Methyl-3,4-bis((9Z,12Z)-octadec-9,12-dienyloxy)pyrrolidine]",153.9
15,"CCCCCC/C=C\CCCCCCCCO[C@@H]1CNC[C@H]1OCCCCCCCC/C=C\CCCCCC [Compound 6, (3R,4R)-3,4-bis((Z)-Hexadec-9-enyloxy)pyrrolidine]",140.3

# More lines, now with the values ahead:
row,Particle diameter of Preparetion [nm],Structure (SMILES)
1,157.2,"CCCCCCCCCCCCCCCCO[C@@H]1CNC[C@H]1OCCCCCCCCCCCCCCCC [Compound 38, (3R,4R)-3,4-bis(Hexadecyloxy)pyrrolidine]"
2,124.0,"CCCC/C=C\CCCCCCCCOCCN(C)CCOCCCCCCCC/C=C\CCCC [Compound 75, N-Methyl-N,N-bis(2-((Z)-Tetradec-9-enyloxy)ethyl)amine]"
3,139.1,"CCCCCCCCCCC/C=C\CCCCCO[C@@H]1CN(C)C[C@H]1OCCCCC/C=C\CCCCCCCCCCC [Compound 15, (3R,4R)-1-Methyl-3,4-bis((Z)-octadec-6-enyloxy)pyrrolidine]"
4,143.9,"CCCCCCCC/C=C\CCCCCCCCOCCN(CCOCCCCCCCC/C=C\CCCCCCCC)C(=O)[C@@H](N)CN [Compound 92, (S)-2,3-Diamino-N,N-bis(2-((Z)-octadec-9-enyloxy)ethyl)propanamido]"
5,141.7,"CCCCCCCC/C=C\CCCCCCCCCCO[C@@H]1CN(C)C[C@H]1OCCCCCCCCCC/C=C\CCCCCCCC [Compound 49, (3R,4R)-3,4-bis((Z)-Icos-11-enyloxy)-1-methylpyrrolidine]"
6,128.3,"CCCCCCCC/C=C\CCCCCCCC(=O)OCCN(CCOC(=O)CCCCCCC/C=C\CCCCCCCC)C(=O)CN [Compound 95, 2-Amino-N,N-bis(2-((Z)-octadec-9-enoyloxy)ethyl)acetamide]"
7,151.3,"CCCCCCCCCCCCCCCCCCOCCN(C)CCOCCCCCCCCCCCCCCCCCC [Compound 37, N-Methyl-N,N-bis(2-(octadecyloxy)ethyl)amine]"
8,112.0,"CCCCCCCC/C=C\CCCCCCCCOC[C@@H]1C[N+](C)(C)C[C@H]1COCCCCCCCC/C=C\CCCCCCCC.[Cl-] (relative stereo) [Compound 111, trans-1,1-Dimethyl-3,4-bis(((Z)-octadec-9-enyloxy)methyl)pyrrolidinium chloride]"
9,160.6,"CCCCCCCC/C=C\CCCCCCCCO[C@@H]1CNC[C@H]1OCCCCCCCC/C=C\CCCCCCCC [Compound 4, (3R,4R)-3,4-bis((Z)-Octadec-9-enyloxy)pyrrolidine]"
10,134.4,"CCCCCC/C=C\CCCCCCCCCCO[C@@H]1CNC[C@H]1OCCCCCCCCCC/C=C\CCCCCC [Compound 41, (3R,4R)-3,4-bis((Z)-Octadec-11-enyloxy)pyrrolidine]"
11,129.6,"CCCCCCCC/C=C\CCCCCCCC(=O)OCCN(CCOC(=O)CCCCCCC/C=C\CCCCCCCC)C(=O)CCN(C)C [Compound 99, 3-(Dimethylamino)-N,N-bis(2-((Z)-octadec-9-enoyloxy)ethyl)propanamido]"
12,133.6,"CCCCCCCCCCCCCCCCOCCN(C)CCOCCCCCCCCCCCCCCCC [Compound 76, N,N-bis(2-(Hexadecyloxy)ethyl)-N-methylamine]"
13,139.2,"CCCCCCCC/C=C\CCCCCCCCOC[C@@H]1CN(C)C[C@H]1COCCCCCCCC/C=C\CCCCCCCC (relative stereo) [Compound 106, trans-1-Methyl-3,4-bis(((Z)-octadec-9-enyloxy)methyl)pyrrolidine]"
14,135.1,"CCCCCCCC/C=C\CCCCCCCCOCCN(CCOCCCCCCCC/C=C\CCCCCCCC)C(=O)[C@@H](N)CCCN [Compound 93, (S)-2,5-Diamino-N,N-bis(2-((Z)-octadec-9-enyloxy)ethyl)pentanamido]"
15,131.3,"CCCCCCCC/C=C\CCCCCCCCCCO[C@@H]1CNC[C@H]1OCCCCCCCCCC/C=C\CCCCCCCC [Compound 42, (3R,4R)-3,4-bis((Z)-Icos-11-enyloxy)pyrrolidine]"
16,131.4,"CCCCCCCC/C=C\CCCCCCCCCCOCCN(C)CCOCCCCCCCCCC/C=C\CCCCCCCC [Compound 78, N,N-bis(2-((Z)-Icos-11-enyloxy)ethyl)-N-methylamine]"
